The results in this text go back to patent US12606533B2, “3-phenylpropylamine derivative” (DAIICHI SANKYO COMPANY, LIMITED, priority 2023, dated 2026).

Each structure is given as a SMILES string.

For test [1], the target named is T1, SF-1 (Homo sapiens, UniProt Q13285).
T1 construct: NCI-H295R SF-1-HiBiT cells with HiBiT tag knocked in at the endogenous SF1 locus; host or cells: NCI-H295R SF-1-HiBiT (knock-in at endogenous locus)
As to the kind of experiment: SF1 degradation induction in NCI-H295R SF-1-HiBiT cells (HiBiT DC50). The test is classed as cell-based. The note with it: 24 hr, concentration that induces 50% degradation of SF-1. In a few lines: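 NCI-H295R cells carrying HiBiT-tagged SF-1, plated and grown 24 hr, then exposed to serially diluted compounds for 24 hr at 37° C. Remaining SF-1 read by lytic HiBiT luminescence; degradation rate from treated vs compound-free signal, DC50 as concentration giving 50% degradation.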
Background: With HiBiT, luminescence reflects the tagged protein that the partner subunit can reach.

The test system of test [2] is NCI-H295R cells. The experiment in a line: Proliferation inhibitory action on NCI-H295R (CellTiter-Glo, 7 days). In kind it is cell-based, human. Particulars: Homo sapiens, NCI-H295R, 168 h. The method, boiled down: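 Compounds serially diluted in DMSO; cells seeded at 2×10^3 cells/well and cultured 7 days at 37° C, 5% CO2. CellTiter-Glo 2.0 luminescence read at day 0 and day 7; proliferation rate derived from compound-addition-day signal, untreated day-7 signal and treated day-7 signal.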
In general terms: In ATP-based viability assays light output follows the ATP content of the culture.

The subject of test [3] is NCI-H295R cell subcutaneous transplant model. The experiment in a line: Antitumor activity against NCI-H295R cell subcutaneous transplant model (adrenocortical carcinoma). The test is classed as in vivo, mouse. The note with it: female NSG mice, oral 30 mg/kg/day QD x 10 to 11, day the test was terminated. Here is the method:
NCI-H295R cells were subcutaneously transplanted at 1.0 to 2.0×10^7 cells/head into the right flank of female NSG mice and, when the estimated tumor volume (major axis×minor axis×minor axis/2) reached 100 to 300 mm^3, the mice were divided into groups of 4 to 5 mice each such that no difference was present between groups. Female NSG mice were purchased from Charles River Japan Co., Ltd. From the day of grouping, each compound was orally administered at a dose of 30 mg/kg/day once a day for 10 to 11 consecutive days (QD×10 to 11). Individual estimated tumor volumes were measured from the day of grouping until 11 to 12 days after grouping (the day the test was terminated). To the vehicle-control group was administered 0.5% methylcellulose containing 6.2-6.4 mM mesylic acid.
The antitumor activity against the NCI-H295R cell subcutaneous transplant model in Experimental Example 5 was calculated by the following formula on the day the test was terminated.

Test [4] relates to xenograft model derived from a prostate cancer patient. The experiment in a line: Antitumor activity in human prostate cancer cell subcutaneous transplant model (patient-derived xenograft). Particulars: male NSG mice, oral 100 mg/kg/day QD x 28 to 32, day of completion of test. The test is classed as in vivo, mouse. The text has this: A xenograft model derived from a prostate cancer patient (obtained from the National Institute of Biomedical Innovation (NIBIO)) was used for antitumor evaluation. Tumors excised from seed mice were cut into about 4-5 mm squares and subcutaneously transplanted into the right flank of male NSG mice. On the fourth day after transplantation, the mice were divided into groups of 8 to 10 mice each to ensure uniformity of the seed mice. From the day of grouping, each compound was orally administered once a day at a dose of 100 mg/kg/day for 28 to 32 consecutive days (QD x 28 to 32). Individual estimated tumor volumes were measured from the day of grouping until the day after the final administration (the day of completion of test). To the vehicle-control group was administered 0.5% methylcellulose containing 21.3 mM mesylic acid.
The antitumor activity in the human prostate cancer cell subcutaneous transplant model was calculated by the following formula on the day of completion of each test.
A general note: Xenograft models place foreign cells or tissue in a host animal.

For test [5], the system named is mouse uterus. The experiment in a line: Inhibitory activity on normal mouse uterine weight (inhibitory action on estrogen activity). The test is classed as in vivo. The note with it: female NSG mice, oral 100 mg/kg/day QD x 8, 24 hr after final administration, relative to vehicle control group. Here is the method: Female NSG mice were purchased from Charles River Japan, Inc. From the day of grouping, each compound was orally administered at a dose of 100 mg/kg/day once a day for 8 consecutive days (QD×8). To the vehicle-control group was administered 0.5% methylcellulose. 24 hr after the final administration, the wet weight of the mouse uterus was measured, and the relative uterine weight (%) to the vehicle control group was calculated by the following formula.
The relative uterine weight (unit: %) of the compound corresponding to each Example No. to the vehicle control group is shown in Table 100.

Usually DC50 stands for the midpoint of the concentration-degradation curve. A lower DC50 goes with degradation at low concentration. In general, GI50 refers to the concentration giving 50% growth inhibition. The low end stands for greater sensitivity of the cells, the high end for lower sensitivity of the cells.

As for `COc1ccc([C@]2(CCN(Cc3ccc(C4=CC[C@H](C(=O)N5CCC(Nc6ccc7c8c6CCCn8c(=O)n7C6CCC(=O)NC6=O)CC5)CC4)c(F)c3)CC(C)(C)C(F)(F)F)CCOC(C)(C)C2)cc1` (stereo partly drawn) [BK9, 3-{7-[(1-{[(4R)-2′-Fluoro-4′-{[{2-[(4R)-4-(4-methoxyphenyl)-2,2-dimethyltetrahydro-2H-pyran-4-yl]ethyl)(3,3,3-trifluoro-2,2-dimethylpropyl)amino]methyl}-2,3,4,5-tetrahydro[biphenyl]-4-yl]carbonyl}piperidin-4-yl)amino]-2-oxo-5,6-dihydro-4H-imidazo[4,5,1-ij]quinolin-1(2H)-yl}piperidine-2,6-dione], in test [1], the DC50 was determined as 3.2 nM. This compound also displayed a GI50 in test [2] of 24 nM. Moreover, the “tumor growth inhibition rate (%)” value is listed as 131% in test [3] and 43% in test [4]. The “relative uterine weight (%)” value in test [5] is listed as 56%.
For the compound `COc1ccc([C@]2(CCN(Cc3ccc(C4=CC[C@H](CN5CCN(C(=O)c6ccc7c8c6CCCn8c(=O)n7C6CCC(=O)NC6=O)CC5)CC4)cc3)CC(C)(C)C(F)(F)F)CCOC(C)(C)C2)cc1` (stereo partly drawn) [AW5, 3-{7-[(4-{[(4R)-4′-{[{2-[(4R)-4-(4-Methoxyphenyl)-2,2-dimethyltetrahydro-2H-pyran-4-yl]ethyl)(3,3,3-trifluoro-2,2-dimethylpropyl)amino]methyl}-2,3,4,5-tetrahydro[biphenyl]-4-yl]methyl}piperazin-1-yl)carbonyl]-2-oxo-5,6-dihydro-4H-imidazo[4,5,1-ij]quinolin-1(2H)-yl}piperidine-2,6-dione], in test [1], half-maximal degradation (DC50) was put at 12 nM. This compound also displayed a GI50 in test [2] of 85 nM. The figures for the “tumor growth inhibition rate (%)” value in test [3] and in test [4] were 109% and 10%, respectively. Also, in test [5], the “relative uterine weight (%)” value came to 74%.
For `COc1ccc([C@]2(CCN(Cc3ccc(C4=CC[C@H](CN5CCN(C(=O)c6ccc7c8c6NCCn8c(=O)n7C6CCC(=O)NC6=O)CC5)CC4)cc3)CC(C)(C)C(F)(F)F)CCOC(C)(C)C2)cc1` (stereo partly drawn) [BY7, 3-{7-[(4-{[(4R)-4′-{[{2-[(4R)-4-(4-Methoxyphenyl)-2,2-dimethyltetrahydro-2H-pyran-4-yl]ethyl)(3,3,3-trifluoro-2,2-dimethylpropyl)amino]methyl}-2,3,4,5-tetrahydro[biphenyl]-4-yl]methyl}piperazin-1-yl)carbonyl]-2-oxo-5,6-dihydro-4H-imidazo[1,5,4-de]quinoxalin-1(2H)-yl}piperidine-2,6-dione] the same measures were 7.3 nM, 54 nM, 118%, 38% and 42%.
